The values below are quoted from earlier work in patent US20210244941A1, “METHODS AND APPARATUS FOR A WEARABLE ELECTRONIC DIGITAL THERAPEUTIC DEVICE” (KINAPTIC, LLC, priority 2018, published 2021).

Read-outs that look alike come from different tables or passages of the source.

For data set [1] the following is noted: dogs, oral dosing.
The conditions of data set [2]: rats, oral dosing.
Assay in data set [3]: not given
This is another data set of the same source.

Data set [4] has as its system sweat glands.
Setting [5] is: single- (up to 80 mg) and multiple-dose studies, healthy subjects and patients.

Regarding `O=C(NC[C@H]1CN(c2ccc(N3CCOCC3=O)cc2)C(=O)O1)c1ccc(Cl)s1` [rivaroxaban], the absolute bioavailability in data set [1] was 60-86%. Besides, the absolute bioavailability in data set [2] was 57-66%. Moreover, the “increase in area under the concentration-time curve (AUC)” value (animal models) is given as “dose proportional increase”. The “absorption after oral dosing” value (animal models, oral dosing) was “absorbed rapidly”. In addition, the excretion result (rats and dogs, renal and faecal/biliary routes) was “rapidly excreted”. Further, in data set [3] (single doses, humans), the absorption entry is reported as “rapid absorption”; the oral bioavailability entry was “high”; the safety and tolerability entry is “safe and well tolerated”. Moreover, in data set [3] (setting [5]), the accumulation result is “no evidence of accumulation” and the pharmacokinetics versus dose entry is reported as “dose-proportional”.
For `C[N+](C)(C)CCOC(N)=O` [carbachol], in data set [4] (gel containing carbachol on sensors, sedentary patient), the sweat induction result is recorded as “effective to induce sweat”. Besides, the “physical sensation or discomfort” value in data set [4] (iontophoresis, electrical current at 0.2 milliamps into upper layer of skin) was “no physical sensation or discomfort”.
